# Experiments:
# [1] = tested on: AGS; assay: Cytotoxicity against human AGS cells incubated for 24 hrs by MTS assay; type: functional, cell-based
# [2] = tested on: DBTRG-05MG; assay: Antiproliferative activity against human DBTRG-05MG cells assessed as inhibition of cell growth incubated for 72 hrs by cell counting kit method; type: functional, cell-based; conditions: Homo sapiens, DBTRG-05MG, 72 h
# [3] = tested on: DBTRG-05MG; assay: Antiproliferative activity against human DBTRG-05MG cells assessed as inhibition of cell growth incubated for 72 hrs in presence of sodium orthovanadate by cell counting kit method; type: functional, cell-based
# [4] = tested on: HepG2; assay: Cytotoxicity against human HepG2 cells assessed as reduction in cell viability incubated for 48 hrs by MTT reagent based spectrophotometric analysis; type: functional; conditions: HepG2, 48 h
# [5] = tested on: HCT-116; assay: Cytotoxicity against human HCT-116 cells assessed as reduction in cell viability incubated for 48 hrs by MTT reagent based spectrophotometric analysis; type: functional; conditions: HCT-116, 48 h
# [6] = tested on: SK-OV-3; assay: Cytotoxicity against human SK-OV-3 cells assessed as reduction in cell viability incubated for 48 hrs by MTT reagent based spectrophotometric analysis; type: functional; conditions: SK-OV-3, 48 h
# [7] = tested on: HepG2; assay: Antitumor activity against human HepG2 cells xenografted in BALB/c mouse assessed as reduction in tumor growth at 10 to 20 mg/kg,iv administrated once every 3 days for 3 weeks; type: functional; design: scale not given: the % may be the effect or the level left; conditions: dose 10-20 mg/kg
# [8] = tested on: MDA-MB-231; assay: Cytotoxicity against human MDA-MB-231 cells incubated for 24 hrs by CCK-8 assay; type: functional, cell-based; conditions: MDA-MB-231, 24 h
# [9] = tested on: MDA-MB-468; assay: Cytotoxicity against human MDA-MB-468 cells incubated for 24 hrs by CCK-8 assay; type: functional, cell-based; conditions: MDA-MB-468, 24 h
# [10] = tested on: SW480; assay: Cytotoxicity against human SW480 cells incubated for 24 hrs by CCK-8 assay; type: functional, cell-based; conditions: SW480, 24 h
# [11] = tested on: SW-620; assay: Cytotoxicity against human SW620 cells incubated for 24 hrs by CCK-8 assay; type: functional, cell-based; conditions: SW-620, 24 h
# [12] = tested on: HCT-116; assay: Cytotoxicity against human HCT-116 cells incubated for 24 hrs by CCK-8 assay; type: functional, cell-based; conditions: HCT-116, 24 h
# [13] = tested on: A549; assay: Cytotoxicity against human A549 cells incubated for 24 hrs by CCK-8 assay; type: functional, cell-based; conditions: A549, 24 h
# [14] = tested on: Huh-7; assay: Cytotoxicity against human Huh-7 cells incubated for 24 hrs by CCK-8 assay; type: functional, cell-based; conditions: Huh-7, 24 h
# [15] = tested on: HepG2; assay: Cytotoxicity against human HepG2 cells incubated for 24 hrs by CCK-8 assay; type: functional, cell-based; conditions: HepG2, 24 h
# [16] = tested on: SK-BR-3; assay: Cytotoxicity against human SK-BR-3 cells incubated for 24 hrs by CCK-8 assay; type: functional, cell-based; conditions: SK-BR-3, 24 h
# [17] = tested on: MCF7; assay: Cytotoxicity against human MCF7 cells incubated for 24 hrs by CCK-8 assay; type: functional, cell-based; conditions: MCF7, 24 h
# [18] = tested on: BT-549; assay: Cytotoxicity against human BT-549 cells incubated for 24 hrs by CCK-8 assay; type: functional, cell-based; conditions: BT-549, 24 h
# [19] = tested on: NCI-H1299; assay: Cytotoxicity against human NCI-H1299 cells incubated for 24 hrs by CCK-8 assay; type: functional, cell-based; conditions: NCI-H1299, 24 h
# [20] = tested on: NCI-H460; assay: Cytotoxicity against human NCI-H460 cells incubated for 24 hrs by CCK-8 assay; type: functional, cell-based; conditions: NCI-H460, 24 h
# [21] = tested on: SW480; assay: Antitumor activity against human SW480 cells xenografted in BALB/c mouse assessed as reduction in tumor volume at 20 mg/kg,po administrated with olaparib for 15 days; type: functional; design: scale not given: the % may be the effect or the level left; conditions: time 15 day
# [22] = tested on: A253 cell line; assay: Cytotoxicity against human A253 cell line incubated for 48 hrs by MTT assay; type: functional, cell-based; conditions: A253, 48 h
# [23] = tested on: SCC-9; assay: Cytotoxicity against human SCC-9 cells incubated for 48 hrs by MTT assay; type: functional, cell-based; conditions: SCC-9, 48 h
# [24] = tested on: SCC-25; assay: Cytotoxicity against human SCC-25 cells incubated for 48 hrs by MTT assay; type: functional, cell-based; conditions: SCC-25, 48 h
# [25] = tested on: SCC-25; assay: Induction of apoptosis in human SCC-25 cells at 7 uM incubated for 48 hrs by annexin V-FITC/PI staining based flow cytometry relative to control; type: functional
# [26] = tested on: HepG2; assay: Antiproliferative activity against human HepG2 cells incubated for 72 hrs by MTT assay; type: functional, cell-based; conditions: HepG2, 72 h
# [27] = tested on: A549; assay: Antiproliferative activity against human A549 cells incubated for 72 hrs by MTT assay; type: functional, cell-based; conditions: A549, 72 h
# [28] = tested on: HCT-116; assay: Antiproliferative activity against human HCT-116 cells incubated for 72 hrs by MTT assay; type: functional, cell-based; conditions: HCT-116, 72 h
# [29] = Antitumor activity against mouse Lewis lung carcinoma cell line implanted in C57BL/6J mouse assessed as reduction in tumor volume at 6 mg/kg administration; type: functional; design: scale not given: the % may be the effect or the level left
# [30] = tested on: EL4; assay: Antitumor activity against mouse EL4 cells implanted in C57BL/6 mouse assessed as increase in survival of animal at 2 mg/kg,ip administrated for 5 consecutive days for 3 weeks; type: functional
# [31] = tested on: HL-60; assay: Cytotoxicity against human HL-60 cells assessed as reduction in cell viability incubated for 48 to 72 hrs by MTT assay; type: functional, cell-based
# [32] = tested on: MCF7; assay: Antiproliferative activity against human MCF7 cells assessed as inhibition of cell growth incubated for 48 hrs by crystal violet staining based ELISA; type: functional; conditions: MCF7, 48 h
# [33] = tested on: MDA-MB-231; assay: Antiproliferative activity against human MDA-MB-231 cells assessed as inhibition of cell growth incubated for 48 hrs by crystal violet staining based ELISA; type: functional; conditions: MDA-MB-231, 48 h
# [34] = tested on: MCF7; assay: Cytotoxicity against human MCF7 cells incubated for 7 days by MTT assay; type: functional, cell-based; conditions: MCF7, 168 h
# [35] = Cytotoxicity against human MCF7/LCC2 cells incubated for 7 days by MTT assay; type: functional, cell-based; conditions: MCF7/LCC2, 168 h
# [36] = Cytotoxicity against human MCF7/LCC9 cells incubated for 7 days by MTT assay; type: functional, cell-based; conditions: MCF7, 168 h
# [37] = tested on: HepG2; assay: Antiproliferative activity against human HepG2 cells assessed as inhibition of cell growth incubated upto 48 hrs by MTT assay; type: functional, cell-based; conditions: HepG2, 48 h
# [38] = tested on: U-87 MG; assay: Antitumor activity against human U87 cells xenografted in BALB/c mouse assessed as increase in survival time of animal at 1 mg/kg,ip administrated once every 3 days for 40 days; type: functional, U-87MG ATCC; conditions: time 40 day
# [39] = tested on: C6; assay: Antiproliferative activity against rat C6 cells assessed as inhibition of cell growth incubated for 48 hrs by MTS/PMS assay; type: functional, cell-based; conditions: C6, 48 h
# [40] = tested on: C6; assay: Antitumor activity against rat C6 cells implanted in Wistar rat assessed as reduction in tumor volume at 100 mg/kg,IG administration once daily for 20 days; type: functional; design: scale not given: the % may be the effect or the level left; conditions: time 20 day
# [41] = Cytotoxicity against human OC3-IV2 cells incubated for 48 hrs by MTT reagent based spectrophotometric analysis; type: functional, cell-based; conditions: OC3-IV2, 48 h
# [42] = tested on: U-87 MG; assay: Cytotoxicity against human U87 cells incubated for 48 hrs by MTT reagent based spectrophotometric analysis; type: functional, cell-based, U-87MG ATCC
# [43] = tested on: NCI-H1299; assay: Cytotoxicity against human NCI-H1299 cells incubated for 48 hrs by MTT reagent based spectrophotometric analysis; type: functional, cell-based; conditions: NCI-H1299, 48 h
# [44] = tested on: PC-3; assay: Cytotoxicity against human PC-3 cells incubated for 48 hrs by MTT reagent based spectrophotometric analysis; type: functional, cell-based; conditions: PC-3, 48 h
# [45] = Antitumor activity against human OC3-IV2 cells xenografted in CB17-Prkdcscid/CrlNarl mouse assessed as reduction in tumor size at 2 mg/kg,ip administrated once every 3 days for 2 weeks; type: functional; design: scale not given: the % may be the effect or the level left
# [46] = tested on: MCF7; assay: Antiproliferative activity against human MCF7 cells incubated for 24 hrs by CCK-8 assay; type: functional, cell-based; conditions: MCF7, 24 h
# [47] = tested on: MDA-MB-231; assay: Antiproliferative activity against human MDA-MB-231 cells incubated for 24 hrs by CCK-8 assay; type: functional, cell-based; conditions: MDA-MB-231, 24 h
# [48] = tested on: MDA-MB-453; assay: Antiproliferative activity against human MDA-MB-453 cells incubated for 24 hrs by CCK-8 assay; type: functional, cell-based; conditions: MDA-MB-453, 24 h
# [49] = Antiproliferative activity against human SUM1315MO2 cells incubated for 24 hrs by CCK-8 assay; type: functional, cell-based; conditions: SUM1315MO2, 24 h
# [50] = tested on: MDA-MB-231; assay: Antitumor activity against human MDA-MB-231 cells xenografted in mouse assessed as reduction in tumor volume; type: functional
smiles,measurement,setting,value
O=C1C=CC(=O)c2ccccc21 [NAPHTHOQUINONE],IC50,[1],2.5 µM
CC1=CC(=O)c2ccccc2C1=O [MENADIONE],IC50,[2],22 µM
same,IC50,[3],13 µM
CCCNC(=O)C(Cc1ccccc1)NC1=C/C(=N/O)c2ccccc2C1=O (stereo not given),IC50,[4],0.16 µM
same,IC50,[5],0.18 µM
same,IC50,[6],0.48 µM
same,Activity,[7],>60%
CC(C)=CC[C@H](O)C1=CC(=O)c2c(O)ccc(O)c2C1=O [ALKANNIN],IC50,[8],4 µM
same,IC50,[9],4 µM
same,IC50,[10],4 µM
same,IC50,[11],4 µM
same,IC50,[12],4 µM
same,IC50,[13],4 µM
same,IC50,[14],4 µM
same,IC50,[15],4 µM
same,IC50,[16],4 µM
same,IC50,[17],4 µM
same,IC50,[18],4 µM
same,IC50,[19],4 µM
same,IC50,[20],4 µM
same,Activity,[21],>50%
Cc1cn([C@H]2C[C@H](N=[N+]=[N-])[C@@H](COC3=C(Cl)C(=O)c4ccccc4C3=O)O2)c(=O)[nH]c1=O,IC50,[22],5.99 µM
same,IC50,[23],8 µM
same,IC50,[24],6.15 µM
same,Activity,[25],30%
CC(C)=CC[C@H](OC(=O)C1CCOCC1)C1=CC(=O)c2c(O)ccc(O)c2C1=O,IC50,[26],14.8 µM
same,IC50,[27],1.67 µM
same,IC50,[28],> 20 µM
same,Activity,[29],63.45%
CC1=CC(=O)c2c(O)cccc2C1=O [PLUMBAGIN],Activity,[30],80%
same,IC50,[31],1.5 µM
same,IC50,[32],1.5 µM
same,IC50,[33],1.5 µM
same,IC50,[34],1 µM
same,IC50,[35],1 µM
same,IC50,[36],1 µM
O=C1C=CC(=O)c2c(O)cccc21 [JUGLONE],IC50,[37],20.4 µM
same,Activity,[38],23.6%
CC(C)=CCC1=C(O)C(=O)c2ccccc2C1=O [LAPACHOL],IC50,[39],3.7 µM
same,Activity,[40],37%
CC1=CC(=O)c2cccc(O)c2C1=O,IC50,[41],5.4 µM
same,IC50,[42],2.4 µM
same,IC50,[43],1.5 µM
same,IC50,[44],6 µM
same,Activity,[45],50%
COC(=O)C(NC(=O)CCCCC1CCSC(c2ccc(OC)cc2)S1)S[C@H](CC=C(C)C)C1=CC(=O)c2c(O)ccc(O)c2C1=O (stereo not given in full),IC50,[46],6.45 µM
same,IC50,[47],3.49 µM
same,IC50,[48],6.94 µM
same,IC50,[49],10.5 µM
same,Activity,[50],200 mm3
